Source: US10351847B2, “Identification and display of peptide ligands” (OXFORD UNIVERSITY INNOVATION LIMITED, priority 2013, dated 2019)
Entries after “also recorded” stand apart in the source; their conditions may differ. Where two headings read alike, the source gives them in different places. Ends that are not written are not given here. GS linker = not defined here

Columns and labels:
[1] = test system: HIV-1 (HIV BAL, IIIB, clade C)
HIV-1 JRFL gp120 = assay: ELISA for binding between predicted peptides and gp120; settings: compared to negative control HA2 (hemagglutinin-binding peptide)
purified gp120 = assay: Surface plasmon resonance (BIAcore) KD of peptides to gp120; format: binding, HIV-1
Method: Immobilisation of purified gp120 protein (1 mg/ml) and purified HLA-A2 heavy chain (reference control, 1 mg/ml) onto the surface of individual flow-cells (Fc1 and Fc2 respectively) of CM5 sensor chip (GE Healthcare) was performed under conditions of 20 μl/min flow rate and 25° C., with HBS-EP buffer (0.01 M HEPES pH 7.4, 0.15 M NaCl, 0.005% v/v Surfactant P20; GE Healthcare) as the running buffer. After initiating the system, 100 μl 0.05M solution of EDC [1-ethyl-3-(3-dimethylaminopropyl) carbodiimide]/NHS (N-Hydroxysuccinimide) at 1:1 ratio was injected to activate the dextran matrix of the sensor chip surface. After immobilisation, 150 μl of 1M ethanolamine hydrochloride was injected to deactivate the unreacted carboxylmethyl groups on the dextran matrix. Finally, 30 μl of Glycine pH2.5 was injected to remove any non-covalently bound proteins.
The affinity analyses of the interaction between 9-amino-acid predicted peptides and purified gp120 were performed using the BIAcore T200 (GE Healthcare), under conditions of 10 μl/min flow rate and 25° C. and using HBS-EP buffer (0.01 M HEPES pH 7.4, 0.15 M NaCl, 0.005% v/v Surfactant P20; GE Healthcare) as the running buffer. Prior to experiment, the 9-amino-acid peptides were diluted to 1 mg/ml with HBS-EP buffer. A 2-fold serial dilution of totally 8 concentrations was used to pass through the […]. The data were analysed using Microcal Origin version 7.5 (Microcal Software Limited).
In order to obtain quantitative measurements of binding reactions between predicted peptides and gp120, surface plasmon resonance (BIAcore) was used to measure the equilibrium dissociation constant KD of the predicted peptides and gp120. […] Since the KD to gp120 is relative to different analytes, purified protein HLA-A*0201 heavy chain was used as a reference control to measure the relative binding affinity of peptides to gp120. Purified gp120 and HLA-A*0201 were immobilised on chips, and the peptides were passed through both flow cells at a constant rate of 10 μl/min. […] The BIcore experiment acted as a second confirmation that the randomised peptide library had successfully captured peptides which bind to gp120 in a single round of selection, and that the sequence information coding the binding peptides was correctly preserved and sequenced.

HIV-1 BaL = assay: HIV-1 inhibition assay (intracellular p24 in CD4+ cells of PBMC); settings: for inhibition of HIV-1 BaL infection: without streptavidin conjugation
HIV-1 IIIB = assay: HIV-1 inhibition assay (intracellular p24 in CD4+ cells of PBMC); format: cell-based; settings: CXCR4 tropic virus
[2] = test system: JRFL gp120 / recombinant CCR5; format: binding, HIV-1; settings: 125 ng peptide

Compound	binding to gp120 on ELISA (absorbance) (HIV-1 JRFL gp120)	affinity to gp120 (ranking) (purified gp120)	HIV-1 inhibition (in words) [1]	cross clade HIV-1 inhibitory activity [1]	further results
enfuvirtide	–	–	–	–	viral inhibition ([1]; positive control, 50 μM): 91.1%
RRRNVPLIL (RRRNVPLIL-{GS linker-K(biotin)}; reading uncertain) [GP2]	significantly higher binding; also recorded: higher absorbance	–	–	–	–
LVLLSSASS [GP5]	–	highest affinity	–	–	–
SSCSVRSSCRLYYSC [GP21]	did not show any binding	–	did not show any HIV-1 inhibition	–	–
CC(C)C[C@H](NC(=O)[C@H](CC(C)C)NC(=O)[C@H](CC(N)=O)NC(=O)[C@H](CC(C)C)NC(=O)[C@H](CCCNC(=N)N)NC(=O)[C@H](CCCNC(=N)N)NC(=O)[C@H](CS)NC(=O)[C@H](Cc1c[nH]c2ccccc12)NC(=O)[C@@H](N)CC(C)C)C(=O)NCC(=O)NCC(=O)NCC(=O)NCC(=O)NCC(=O)NCC(=O)N[C@@H](CO)C(=O)NCC(=O)NCC(=O)N[C@@H](CO)C(=O)NCC(=O)N[C@@H](CCCCNC(=O)CCCC[C@@H]1SC[C@@H]2NC(=O)N[C@@H]21)C(=O)O [GP16]	significantly higher binding; also recorded: higher absorbance; also recorded: highest binding affinity	highest affinity	greatest inhibition	exhibited cross clade HIV-1 inhibitory activity	inhibition of HIV-1 BaL infection (HIV-1 BaL; 50 μM): less than 1%; inhibition of HIV-1 BaL infection (HIV-1 BaL; 100 μM): less than 1%; inhibition of HIV-1 BaL infection (HIV-1 BaL; 250 μM): 50%; reduction in absorbance of peptide binding to gp120 (gp120; gp120 blocked with any of the three antibodies (V3, VRC01, F105)): no reduction
LLALSAYMV [GP11]	significantly higher binding; also recorded: higher absorbance	highest affinity	–	exhibited cross clade HIV-1 inhibitory activity	–
SYSFCPRRQ (also: GS linker and biotinylated lysine, end not given here) [GP3]	significantly higher binding; also recorded: higher absorbance	highest affinity	greatest inhibition	exhibited cross clade HIV-1 inhibitory activity	inhibition of replication (HIV-1 IIIB): no inhibition; inhibition of HIV-1 BaL infection (HIV-1 BaL; 50 μM): no inhibitory effect; inhibition of HIV-1 BaL infection (HIV-1 BaL; 100 μM): 34.5%; inhibition of HIV-1 BaL infection (HIV-1 BaL; 250 μM): 54.7%; inhibition of replication (HIV-1 BaL; CCR5 tropic virus): exhibited inhibition; reduction in absorbance (recombinant CCR5 binding to gp120) [2]: 65.8%; reduction in absorbance of peptide binding to gp120 (gp120; gp120 pre-blocked with V3 antibody): significant reduction
